Measurements from patent publication US20100311782A1, “SUBSTITUTED PIPERIDINYLPROPANOIC ACID COMPOUNDS AND METHODS OF THEIR USE” (priority 2009, published 2010).
Several values for one entry are separate records, joined by “and”; a condition that tells them apart may be missing. Equal values may be shown once. Where a name gives a salt, the structure may show the parent alone. Read-outs that look alike come from different tables or passages of the source.

Assays:
[1] = tested on: morphine-slowed gastrointestinal transit (GIT); assay: Mouse Gastrointestinal Transit (GIT) Assay, antagonism of the anti-transit effect of morphine; type: in vivo, mice; settings: for recovery of the pre-opioid treatment efficacy of GIT: one hour after a 3 mg/kg dose, morphine 3 mg/kg s.c.
Method: Male Swiss-Webster mice (25-30 g) obtained from Ace Animals (Boyertown, Pa.) were used for all experiments. Mice were housed 4/cage in polycarbonate cages with food and water available ad libitum. Mice were on a 12 hours light:dark schedule with lights on at 6:30 a.m. All experiments were performed during the light cycle. Mice were fasted the night before the experiment, with water available ad libitum.
Compounds were administered in a volume of 0.1 ml/10 g of body weight. Morphine (3 mg/kg) or vehicle (0.9% saline) was administered s.c. 35 min to induce slowed GIT, prior to determination of GIT. Ten minutes after the morphine treatment, mice were administered 0.2 ml of a charcoal meal orally. The charcoal meal consisted of a slurry of charcoal, flour, and water in the following ratio (1:2:8, w:w:v). Twenty-five minutes after receiving the charcoal meal, the mice were euthanized with CO2 and GIT was determined.
GIT is expressed as % GIT by the following formula: […]
For each test agent, a value for % Antagonism (% A) was determined for the 2 and 6 hr antagonist pretreatment. Using the mean % GIT for each treatment group, % A was calculated using the following formula: […]

Dog PK = type: in vivo; settings: for AUC0-t: 6 mg/kg, individual dogs; for bioavailability: single PO dose of 6 mg/kg, read-out: oral bioavailability (F); for AUC: mean of three dogs
Method: The PO dose formulations were prepared on the day of dosing by dissolving 33.16 mg of test material in 60 mL of sterile water to achieve a concentration of 0.5526 mg/mL total compound (0.5 mg/mL test compound). The dosing solution was vortexed to ensure homogeneity and dissolution.
The dose formulation was administered via oral gavage per facility SOPs. Each dog received a single PO dose of 6 mg/kg.
(§1) All blood samples were collected from a peripheral vessel. Approximately 0.3 mL blood was collected at each time point. All blood samples were placed on wet ice until processed for plasma.
Blood samples were processed for plasma by centrifugation at approximately 5° C. Plasma samples were stored in polypropylene tubes, quick frozen over dry ice and kept at −70±10° C. until LC/MSMS analysis.
(§2) Plasma concentrations were determined by high performance liquid chromatography with tandem mass spectrometric detection (LC/MS/MS) after protein precipitation.
(§3) Plasma concentration versus time data was analyzed by non-compartmental approaches using the WinNonlin software program (version 5.0.1, Pharsight, Mountain View, Calif.).

[2] = target: T1, cloned human μ opioid receptor (Homo sapiens, UniProt P35372); assay: Receptor binding, [3H]diprenorphine displacement, mu opioid receptor; settings: for Ki: [3H]diprenorphine, cloned human mu opioid receptor; for DOR/MOR Ratio: ratio of DOR Ki to MOR Ki
T1 construct: expressed in transfected cells
T1 sequence (P35372 whole entry): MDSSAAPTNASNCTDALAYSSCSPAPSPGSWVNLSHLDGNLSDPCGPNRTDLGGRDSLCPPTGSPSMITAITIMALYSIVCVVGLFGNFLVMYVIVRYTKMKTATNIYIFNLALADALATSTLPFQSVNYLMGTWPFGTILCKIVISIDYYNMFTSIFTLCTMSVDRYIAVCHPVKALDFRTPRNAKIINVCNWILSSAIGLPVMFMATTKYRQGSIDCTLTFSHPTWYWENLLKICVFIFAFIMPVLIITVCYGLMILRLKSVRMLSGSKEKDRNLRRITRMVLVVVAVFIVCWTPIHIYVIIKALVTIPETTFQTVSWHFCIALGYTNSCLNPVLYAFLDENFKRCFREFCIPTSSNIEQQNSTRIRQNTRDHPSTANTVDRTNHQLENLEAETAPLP

[3] = target: T2, cloned human δ opioid receptor (Homo sapiens, UniProt P41143); assay: Receptor binding, [3H]diprenorphine displacement, delta opioid receptor
T2 construct: expressed in transfected cells
T2 sequence (P41143 whole entry): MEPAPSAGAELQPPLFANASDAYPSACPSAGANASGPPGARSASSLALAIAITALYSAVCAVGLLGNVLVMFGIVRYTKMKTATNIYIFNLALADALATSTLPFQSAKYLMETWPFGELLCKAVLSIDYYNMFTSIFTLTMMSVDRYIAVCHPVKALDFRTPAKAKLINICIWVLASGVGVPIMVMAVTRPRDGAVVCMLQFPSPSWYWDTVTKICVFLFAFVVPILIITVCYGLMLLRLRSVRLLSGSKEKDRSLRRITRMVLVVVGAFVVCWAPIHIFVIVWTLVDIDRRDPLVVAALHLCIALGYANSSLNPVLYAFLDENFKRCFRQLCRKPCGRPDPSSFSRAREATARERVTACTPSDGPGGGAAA

Primate PK = type: in vivo, monkey; settings: for AUC0-t / Cmax: 1 mg/kg; for bioavailability: single PO dose of 1 mg/kg, read-out: oral bioavailability (F)
Method: The dose formulations were prepared on the day of dosing by dissolving 33.16 mg of test material in 60 mL of sterile water to achieve a concentration of 0.5526 mg/mL total compound (0.5 mg/mL test compound). The dosing solution was vortexed to ensure homogeneity and dissolution.
The dose formulation was administered via oral gavage per facility SOPs. Each monkey received a single PO dose of 1 mg/kg as a 0.5% MC suspension.
as §1
Blood samples were processed for plasma by centrifugation at approximately 5° C. Plasma samples were be stored in polypropylene tubes, quick frozen over dry ice and kept at −70±10° C. until LC/MSMS analysis.
as §2, §3

Rat PK = type: in vivo; settings: rats; for bioavailability: male, Sprague-Dawley, rat, plasma, read-out: oral bioavailability (F)
Method: Jugular vein cannulated (JVC) male Sprague-Dawley (SD) rats (Charles River, Raleigh, N.C.) were housed individually in polycarbonate cages on alpha-dri bedding in an environmentally controlled room with a 12 hour light-dark cycle. Rats were allowed to acclimate for 3-5 days prior to the study. Animals were fasted overnight prior to drug administration and were fed after the 4 h blood collection.
The suspension used for PO administration was prepared at a nominal concentration of 2 mg/mL of test agent in 0.5% methylcellulose with 0.1% Tween®80.
Two groups of three JVC rats each received a single PO dose of 10 mg/kg. The PO dose was administered by oral gavage in a dosing volume of 5 mL/kg. Blood samples (0.6 mL) were collected via jugular vein cannula at predose, 15 and 30 minutes and 1, 2, 4, 6, 8 and 24 h postdose in EDTA-containing tubes. Plasma was obtained by centrifugation at 3000 rpm for 15 minutes. The samples were stored at −20° C. until analysis.
Plasma aliquots were deproteinized with internal standard solution in acetonitrile. The samples were vortexed, centrifuged and an aliquot of the supernatant was mixed with water. The diluted aliquot was then analyzed.
as §2
Model-independent analyses were performed to evaluate the pharmacokinetics. The area under the concentration-time curve (AUC) and the area under the first moment curve (AUMC) were calculated from zero to 6 or 8 hours post-dose using the linear trapezoidal method with extrapolation to infinity. The terminal elimination rate constant (kel) and half-life (t1/2) were calculated by linear least-squares regression of log-transformed concentration-time data. Systemic plasma clearance (CLs) was computed from Dose/AUC. Volume of distribution at steady state (Vdss) was calculated from Dose·AUMC/AUC^2. WinNonlin® Professional software (Pharsight Corporation) was used to generate all pharmacokinetic data.

[4] = target: T3, cloned human κ opioid receptor (Homo sapiens, UniProt P41145); assay: Receptor binding, [3H]diprenorphine displacement, kappa opioid receptor
T3 construct: expressed in transfected cells
T3 sequence (P41145 whole entry): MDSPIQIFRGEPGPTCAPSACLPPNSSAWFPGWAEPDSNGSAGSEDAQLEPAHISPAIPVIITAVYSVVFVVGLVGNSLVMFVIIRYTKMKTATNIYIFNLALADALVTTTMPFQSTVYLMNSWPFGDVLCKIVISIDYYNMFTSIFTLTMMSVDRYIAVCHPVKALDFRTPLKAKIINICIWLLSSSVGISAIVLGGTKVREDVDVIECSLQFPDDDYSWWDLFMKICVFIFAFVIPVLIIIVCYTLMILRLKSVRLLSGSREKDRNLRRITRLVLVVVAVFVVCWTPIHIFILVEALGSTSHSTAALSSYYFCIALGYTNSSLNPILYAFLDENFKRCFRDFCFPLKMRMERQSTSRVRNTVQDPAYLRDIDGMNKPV

[5] = individual monkeys, PO 1 mg/kg, lithium salt
[6] = [3H]diprenorphine, cloned human kappa opioid receptor, read-out: KOR Ki

With `C[C@H]1CN(C[C@H](Cc2ccccc2)C(=O)[O-])CC[C@@]1(C)c1cccc(C(N)=O)c1.[Li+]` [Example 1, (S)-2-benzyl-3-((3R,4R)-4-(3-carbamoylphenyl)-3,4-dimethylpiperidin-1-yl)propanoic acid, lithium salt] the “AUC values (h * percent antagonism (0-6 h))” value ([1]; mice, 3 mg/kg orally, 0-6 h) was 408.8 h * percent antagonism, the “recovery of the pre-opioid treatment efficacy of GIT” value ([1]; mice) was about 90% and the “AUC value (GIT antagonism) times greater than that of Example C-2” value ([1]; mouse, in vivo) was 2.1 times. The AUC0-t (Dog PK; dog, in vivo, po, PO 6 mg/kg, read-out: AUC0-t) was 183 ng·h/mL, the bioavailability (Dog PK; dog, in vivo, dogs) was 30% and the AUC (Dog PK; dog, in vivo, PO 6 mg/kg) was 259 ± 81 ng·h/mL. The “improvement in the mean AUC value as compared to Example C-3” value (Dog PK; dogs, PO 6 mg/kg) was “approximately 4 fold”, the “increase in mean concentration in plasma as compared to C-3” value (Dog PK; dogs, PO 6 mg/kg) was “approximately 3 fold” and the AUC0-t (Dog PK; PO 6 mg/kg, lithium salt) was 250 ng·h/mL and 344 ng·h/mL. For the same molecule, the Ki ([2]; MOR Ki) was 11.2 nM, the “DOR/MOR Ratio” value [2] was 30 and the Ki ([3]; DOR Ki) was 340 nM. The AUC0-t (Primate PK; [5]) was 87 ng·h/mL and 132 ng·h/mL, the Cmax (Primate PK; [5]) was 29.5 ng/mL and 20.8 ng/mL and 44.6 ng/mL and the AUC0-t (Primate PK; monkey, in vivo, po, individual monkeys, PO 1 mg/kg, read-out: AUC0-t) was 103 ng·h/mL. It also gave a Cmax (Primate PK; monkey, in vivo, po, mean of three monkeys, PO 1 mg/kg, read-out: Mean Cmax ± SD) of 32 ± 12 ng/mL, a Cmax (Primate PK; monkey, in vivo, po, monkeys, PO 1 mg/kg, mean ± SD, text of b284, read-out: Cmax) of 32 ± 12 ng/mL and a bioavailability (Primate PK; monkey, in vivo, monkeys) of 10%. For the same molecule, the “fold higher maximum plasma concentration (Cmax) as compared to Example C-3” value (Primate PK; monkeys, PO 1 mg/kg) was 18.3 fold.
In the case of `C[C@H]1CN(C[C@H](Cc2ccccc2)C(=O)[O-])CC[C@@]1(C)c1cccc(C(N)=O)c1.[Na+]` [Example 2, (S)-2-benzyl-3-((3R,4R)-4-(3-carbamoylphenyl)-3,4-dimethylpiperidin-1-yl)propanoic acid, sodium salt], the Ki ([2]; MOR Ki) is reported as 17.3 nM, the “DOR/MOR Ratio” value [2] is reported as 18 and the Ki ([3]; DOR Ki) is reported as 308 nM. For the same molecule, the bioavailability (Rat PK; single PO dose of 10 mg/kg) was 11%.
With `C[C@H]1CN(C[C@H](Cc2ccccc2)C(=O)O)CC[C@@]1(C)c1cccc(C(N)=O)c1.O=C(O)C(F)(F)F` [Example 3, (S)-2-benzyl-3-((3R,4R)-4-(3-carbamoylphenyl)-3,4-dimethylpiperidin-1-yl)propanoic acid, trifluoroacetate salt] the Ki ([2]; MOR Ki) was 12.4 nM, the “DOR/MOR Ratio” value [2] was 32 and the Ki ([3]; DOR Ki) was 397 nM. The bioavailability (Rat PK; single PO dose of 10 mg/kg) was 8% and the “improvement in oral bioavailability as compared to Example C-2” value (Rat PK; PO 10 mg/kg) was “approximately 8 fold”.
In the case of `C[C@H]1CN(C[C@H](Cc2ccccc2)C(=O)O)CC[C@@]1(C)c1cccc(C(N)=O)c1` [Example 4, (S)-2-Benzyl-3-((3R,4R)-4-(3-carbamoylphenyl)-3,4-dimethylpiperidin-1-yl)propanoic acid], the Ki ([2]; MOR Ki) is reported as 14 nM, the “DOR/MOR Ratio” value [2] is reported as 33 and the Ki ([3]; DOR Ki) is reported as 460 nM.
`C[C@H]1CN(C[C@H](Cc2ccccc2)C(=O)O)CC[C@@]1(C)c1cccc(C(N)=O)c1` [Example 5, (S)-2-benzyl-3-((3R,4R)-4-(3-carbamoylphenyl)-3,4-dimethylpiperidin-1-yl)propanoic acid, oxalic acid salt] showed a Ki ([2]; MOR Ki) of 16.9 nM, a Ki ([3]; DOR Ki) of 310 nM and a Ki [4] of over 10000 nM.
For `C[C@H]1CN(C[C@H](Cc2ccccc2)C(=O)O)CC[C@@]1(C)c1cccc(C(N)=O)c1` [Example 6, (S)-2-benzyl-3-((3R,4R)-4-(3-carbamoylphenyl)-3,4-dimethylpiperidin-1-yl)propanoic acid, succinic acid salt], the Ki ([2]; MOR Ki) was 18.1 nM and the Ki ([3]; DOR Ki) was 527 nM.
With `C[C@H]1CN(C[C@@H](Cc2ccccc2)C(=O)NCC(=O)O)CC[C@@]1(C)c1cccc(C(N)=O)c1.O=C(O)C(F)(F)F` [Example C-2, [[2(R)-[[4(R)-(3-Amidophenyl)-3(R),4-dimethyl-1-piperidinyl]methyl]-1-oxo-3-phenylpropyl]amino]acetic acid, trifluoromethylacetate salt, reference compound] the “recovery of the pre-opioid treatment efficacy of GIT” value ([1]; mice) was 50%, the “AUC values (h * percent antagonism (0-6 h))” value ([1]; mouse, in vivo, po, 3 mg/kg) was 191.5 h * percent antagonism and the “times more potent than Example 1 as an MOR antagonist in the opioid receptor binding assay” value ([2]; C-2 versus Example 1, Table I) was 4.3 times. The Ki ([2]; read-out: MOR Ki) was 2.6 nM, the “DOR/MOR Ratio” value [2] was 33 and the Ki ([3]; read-out: DOR Ki) was 85 nM. For the same molecule, the “oral bioavailability (F)” value (Rat PK; single PO dose of 10 mg/kg) was about 1% and the Ki [4, 6] was 660 nM.
`CC1CN(CC(Cc2ccccc2)C(=O)NCC(=O)O)CCC1(C)c1cccc(C(N)=O)c1` [Example C-3, [[2(R)-[[4(R)-(3-Amidophenyl)-3(R),4-dimethyl-1-piperidinyl]methyl]-1-oxo-3-phenylpropyl]amino]acetic acid, sodium salt, reference compound] gave an AUC0-t (Dog PK; dog, plasma, po, PO 6 mg/kg, read-out: AUC0-t) of 81 ng·h/mL, a bioavailability (Dog PK; dog, plasma, dogs) of 11% and an AUC (Dog PK; dog, plasma, PO 6 mg/kg) of 63 ± 16 ng·h/mL. The AUC0-t (Dog PK; PO 6 mg/kg, sodium salt) was 54 ng·h/mL and 53 ng·h/mL, the Ki ([2]; MOR Ki) was 2.9 nM and the “DOR/MOR Ratio” value [2] was 34. For the same molecule, the Ki ([3]; DOR Ki) was 98 nM, the Ki [4, 6] was 930 nM and the Cmax (Primate PK; individual monkeys, PO 1 mg/kg, sodium salt) was 1.81 ng/mL and 1.74 ng/mL. For the same molecule, the Cmax (Primate PK; monkey, plasma, po, individual monkeys, PO 1 mg/kg, read-out: Cmax) was 1.7 ng/mL, the Cmax (Primate PK; monkey, plasma, po, mean of three monkeys, PO 1 mg/kg, read-out: Mean Cmax ± SD) was 1.75 ± 0.06 ng/mL and the bioavailability (Primate PK; monkey, plasma, monkeys) was under 2%.
